Data from patent US12077503B2, “Substituted cyclic amides and their use as herbicides” (FMC CORPORATION, priority 2015, dated 2024).

Key:
Assay type in all cases: in vivo
[1] = tested on: ryegrass, Italian (Italian ryegrass, Lolium multiflorum); assay: Test A postemergence
From the text: (§1) Seeds of plant species selected from barnyardgrass (Echinochloa crus-galli), Kochia (Kochia scoparia), ragweed (common ragweed, Ambrosia elatior), ryegrass, Italian (Italian ryegrass, Lolium multiflorum), crabgrass, large (Digitaria sanguinalis), giant foxtail (Setaria faberii), green foxtail (Setaria viridis), morningglory (Ipomoea spp.), pigweed (Amaranthus retroflexus), velvetleaf (Abutilon theophrasti), wheat (Triticum aestivum), and corn (Zea mays) were planted into a blend of loam soil and sand and treated preemergence with a directed soil spray using test chemicals formulated in anon-phytotoxic solvent mixture which included a surfactant.
(§2) At the same time, plants selected from these crop and weed species and also blackgrass (Alopecurus myosuroides), and Galium (catchweed bedstraw, Galium aparine) were planted in pots containing the same blend of loam soil and sand and treated with postemergence applications of test chemicals formulated in the same manner. Plants ranged in height from 2 to 10 cm and were in the one- to two-leaf stage for the postemergence treatment. Treated plants and untreated controls were maintained in a greenhouse for approximately 10 d, after which time all treated plants were compared to untreated controls and visually evaluated for injury. Plant response ratings, summarized in Table A, are based on a 0 to 100 scale where 0 is no effect and 100 is complete control. A dash (-) response means no test result.

[2] = tested on: pigweed (Amaranthus retroflexus); assay: Test A postemergence
From the text: as §1, §2

[3] = tested on: giant foxtail (Setaria faberii); assay: Test A postemergence
From the text: as §1, §2

[4] = tested on: Kochia (Kochia scoparia); assay: Test A postemergence
From the text: as §1, §2

[5] = tested on: barnyardgrass (Echinochloa crus-galli); assay: Test A postemergence
From the text: as §1, §2

[6] = tested on: ragweed (common ragweed, Ambrosia elatior); assay: Test A postemergence
From the text: as §1, §2

[7] = tested on: wheat (Triticum aestivum); assay: Test A postemergence
From the text: as §1, §2

[8] = tested on: blackgrass (Alopecurus myosuroides); assay: Test A postemergence
From the text: as §1, §2

[9] = tested on: corn (Zea mays); assay: Test A postemergence
From the text: as §1, §2

[10] = tested on: Galium (catchweed bedstraw, Galium aparine); assay: Test A postemergence
From the text: as §1, §2

[11] = tested on: ryegrass, Italian (Italian ryegrass, Lolium multiflorum); assay: Test A preemergence; settings: Preemergence; for Plant response rating, Ryegrass, Italian: 125 g ai/ha, visual injury after approximately 10 d, 0 to 100 scale where 0 is no effect and 100 is complete control; for Ryegrass, Italian plant response rating (0 to 100 scale, 0 is no effect, 100 is complete control): 500 g ai/ha, visual injury approx. 10 d
From the text: as §1, §2

[12] = tested on: pigweed (Amaranthus retroflexus); assay: Test A preemergence; settings: Preemergence; for Plant response rating, Pigweed: 125 g ai/ha, visual injury after approximately 10 d, 0 to 100 scale where 0 is no effect and 100 is complete control; for Pigweed plant response rating (0 to 100 scale, 0 is no effect, 100 is complete control): 500 g ai/ha, visual injury approx. 10 d
From the text: as §1, §2

[13] = tested on: giant foxtail (Setaria faberii); assay: Test A preemergence; settings: Preemergence; for Plant response rating, Foxtail, Giant: 125 g ai/ha, visual injury after approximately 10 d, 0 to 100 scale where 0 is no effect and 100 is complete control; for Foxtail, Giant plant response rating (0 to 100 scale, 0 is no effect, 100 is complete control): 500 g ai/ha, visual injury approx. 10 d
From the text: as §1, §2

[14] = tested on: Kochia (Kochia scoparia); assay: Test A preemergence; settings: Preemergence; for Plant response rating, Kochia: 125 g ai/ha, visual injury after approximately 10 d, 0 to 100 scale where 0 is no effect and 100 is complete control; for Kochia plant response rating (0 to 100 scale, 0 is no effect, 100 is complete control): 500 g ai/ha, visual injury approx. 10 d
From the text: as §1, §2

[15] = tested on: barnyardgrass (Echinochloa crus-galli); assay: Test A preemergence; settings: Preemergence; for Plant response rating, Barnyardgrass: 125 g ai/ha, visual injury after approximately 10 d, 0 to 100 scale where 0 is no effect and 100 is complete control; for Barnyardgrass plant response rating (0 to 100 scale, 0 is no effect, 100 is complete control): 500 g ai/ha, visual injury approx. 10 d
From the text: as §1, §2

[16] = tested on: ragweed (common ragweed, Ambrosia elatior); assay: Test A preemergence; settings: Preemergence; for Plant response rating, Ragweed: 125 g ai/ha, visual injury after approximately 10 d, 0 to 100 scale where 0 is no effect and 100 is complete control; for Ragweed plant response rating (0 to 100 scale, 0 is no effect, 100 is complete control): 500 g ai/ha, visual injury approx. 10 d
From the text: as §1, §2

[17] = 125 g ai/ha, postemergence, visual rating after approx. 10 d, 0 to 100 scale (0 no effect, 100 complete control)
[18] = Postemergence, 500 g ai/ha, 0 to 100 scale where 0 is no effect and 100 is complete control

Structure (SMILES) | Plant response rating, Ryegrass, Italian [1, 17] | Plant response rating, Ryegrass, Italian [1, 18] | Plant response rating, Pigweed [2, 17] | Plant response rating, Pigweed [2, 18] | Plant response rating, Foxtail, Giant [3, 17] | Plant response rating, Foxtail, Giant [3, 18] | Plant response rating, Kochia [4, 17] | Plant response rating, Kochia [4, 18] | Plant response rating, Barnyardgrass [5, 17] | Plant response rating, Barnyardgrass [5, 18] | Plant response rating, Ragweed [6, 17] | Plant response rating, Ragweed [6, 18] | Plant response rating, Wheat [7, 17] | Plant response rating, Wheat [7, 18] | Plant response rating, Blackgrass [8, 17] | Plant response rating, Blackgrass [8, 18] | Plant response rating, Corn [9, 17] | Plant response rating, Corn [9, 18] | Plant response rating, Galium [10, 17] | Plant response rating, Galium [10, 18] | further results
CN1CC(c2cccc(C(F)(F)F)c2)C(C(=O)Nc2ccccc2[N+](=O)[O-])C1=O (stereo not shown) [Compound 572] | 30 | 60 | 30 | 40 | 90 | 90 | 20 | 60 | 90 | 90 | 0 | 20 | 60 | 70 | 70 | 80 | 60 | 80 | 50 | 60 | Plant response rating, Ryegrass, Italian [11]: 50; Ryegrass, Italian plant response rating (0 to 100 scale, 0 is no effect, 100 is complete control) [11]: 50; Plant response rating, Pigweed [12]: 40; Pigweed plant response rating (0 to 100 scale, 0 is no effect, 100 is complete control) [12]: 80; Plant response rating, Foxtail, Giant [13]: 90; Foxtail, Giant plant response rating (0 to 100 scale, 0 is no effect, 100 is complete control) [13]: 90; Plant response rating, Kochia [14]: 70; Kochia plant response rating (0 to 100 scale, 0 is no effect, 100 is complete control) [14]: 80; Plant response rating, Barnyardgrass [15]: 90; Barnyardgrass plant response rating (0 to 100 scale, 0 is no effect, 100 is complete control) [15]: 90; Plant response rating, Ragweed [16]: 0; Ragweed plant response rating (0 to 100 scale, 0 is no effect, 100 is complete control) [16]: 50
CN1CC(c2cccc(C(F)(F)F)c2)C(C(=O)Nc2ccccc2)C1=O (stereo not shown) [Compound 577] | 30 | 30 | 0 | 0 | 90 | 90 | 0 | 40 | 90 | 100 | 0 | 30 | 40 | 70 | 70 | 80 | 60 | 80 | 30 | 50 | Plant response rating, Ryegrass, Italian [11]: 40; Ryegrass, Italian plant response rating (0 to 100 scale, 0 is no effect, 100 is complete control) [11]: 80; Plant response rating, Pigweed [12]: 0; Pigweed plant response rating (0 to 100 scale, 0 is no effect, 100 is complete control) [12]: 40; Plant response rating, Foxtail, Giant [13]: 90; Foxtail, Giant plant response rating (0 to 100 scale, 0 is no effect, 100 is complete control) [13]: 100; Plant response rating, Kochia [14]: 50; Kochia plant response rating (0 to 100 scale, 0 is no effect, 100 is complete control) [14]: 70; Plant response rating, Barnyardgrass [15]: 90; Barnyardgrass plant response rating (0 to 100 scale, 0 is no effect, 100 is complete control) [15]: 100; Plant response rating, Ragweed [16]: 0; Ragweed plant response rating (0 to 100 scale, 0 is no effect, 100 is complete control) [16]: 40
